Data from ChEMBL document CHEMBL2216755, “Ranking high affinity ligands of low solubility by NMR spectroscopy” (ACS Med Chem Lett, 2011).
pKd: −log10 of the molar value.

Legend:
[1] = target: T1, Peptidyl-prolyl cis-trans isomerase A (Homo sapiens, UniProt P62937); assay: Binding affinity to human cyclophilin A by intrinsic tryptophan fluorescence
Target sequence in this assay (P62937 whole entry): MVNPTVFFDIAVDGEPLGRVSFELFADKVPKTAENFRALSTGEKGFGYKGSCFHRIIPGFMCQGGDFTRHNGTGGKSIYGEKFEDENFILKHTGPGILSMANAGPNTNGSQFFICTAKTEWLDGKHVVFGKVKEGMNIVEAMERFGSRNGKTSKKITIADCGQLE

[2] = target: T1, Peptidyl-prolyl cis-trans isomerase A; assay: Binding affinity to human cyclophilin A assessed as compound-enzyme complex formation at 1:1 protein to compound ratio by NMR analysis
Target sequence in this assay (P62937 whole entry, looked up): as the sequence (P62937 whole entry) above

| Activity [2] | Structure (SMILES) | pKd [1] |
| --- | --- | --- |
| – | C/C=C/C[C@@H](C)[C@@H](O)[C@H]1C(=O)N[C@@H](CC)C(=O)N(C)CC(=O)N(C)[C@@H](C(C)C)C(=O)N[C@@H](C(C)C)C(=O)N(C)[C@@H](CC(C)C)C(=O)N[C@@H](C)C(=O)N[C@H](C)C(=O)N(C)[C@@H](CC(C)C)C(=O)N(C)[C@@H](CC(C)C)C(=O)N(C)[C@@H](C(C)C)C(=O)N1C | 7.96 |
| 53% | C/C=C/C[C@@H](C)[C@@H](O)[C@H]1C(=O)N[C@@H](CC)C(=O)N(C)CC(=O)N(C)[C@@H](CC(C)C)C(=O)N[C@@H](C(C)C)C(=O)N(C)[C@@H](CC(C)C)C(=O)N[C@@H](C)C(=O)N[C@H](C)C(=O)N(C)[C@@H](CC(C)C)C(=O)N(C)[C@@H](C(C)C)C(=O)N(C)[C@@H](C(C)C)C(=O)N1C | – |
| 59% | C/C=C/C[C@@H](C)[C@@H](O)[C@H]1C(=O)N[C@@H](CC)C(=O)N(C)[C@H](C)C(=O)N(CC)[C@@H](C(C)C)C(=O)N[C@@H](C(C)C)C(=O)N(C)[C@@H](CC(C)C)C(=O)N[C@@H](C)C(=O)N[C@H](C)C(=O)N(C)[C@@H](CC(C)C)C(=O)N(C)[C@@H](CC(C)C)C(=O)N(C)[C@@H](C(C)C)C(=O)N1C [ALISPORIVIR] | 7.96 |
